Experimental data as given in the NIST ThermoML archive (doi:10.1016/j.jct.2003.09.010).
± gives the expanded uncertainty stated by the source.

Test: mn = molality of the nth substance listed, in mol/kg
Settings: 298.15 K, 101 kPa, Liquid

mass density (m1 = 0.05)	mass density (m1 = 0.5)	Structure (SMILES)	mass density (m1 = 1)
		CCCCCCCCCCCCCCCC[N+](C)(C)C.[Br-] [N,N,N-trimethyl-1-hexadecanaminium bromide] + O	1004.43 ± 0.46 kg/m3
999.133 ± 0.27 kg/m3 [middle of 5 runs]	1014.57 ± 0.3 kg/m3 [middle of 5 runs]	CCCCCCCCCCCCOS(=O)(=O)[O-].[Na+] [sodium dodecyl sulfate] + O	1027.43 ± 0.33 kg/m3 [middle of 7 runs]
